Results on 14 molecules are retold here after PubChem BioAssay (NCI).

Some test systems named below: MOLT-4 leukemia; NCI-H522 lung; HOP-92 NSCLC; TK-10 renal; OVCAR-3 ovarian; A498 renal; K-562 leukemia; KM12 colon; 786-0 renal.
Common to all, as to experiment: DTP human tumour cell line panel, 48 h

Values joined by “and” are separate entries in the source; they are usually repeats but may differ in a detail not shown here. Equal entries are not always repeated.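 Five compound concentrations were applied to cells in 96-well plates for 48 hours; endpoints were derived by simple linear interpolation of the resulting dose-response curve. At the GI50, growth is halved. TGI denotes the concentration required for complete inhibition of growth.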

Broadly, the TGI is the concentration at which net growth stops. High values mean less potent growth arrest, low ones more potent growth arrest. Regarding `O=C(O)/C(Cl)=C(Cl)/C=N/NC(=O)c1cc2ccccc2cc1O`, the TGI was 34.9 µM in the assay on MOLT-4 leukemia; 77 µM in the assay on NCI-H522 lung; above 100 µM with HOP-92 NSCLC; above 100 µM in the assay with TK-10 renal; above 100 µM in the assay on OVCAR-3 ovarian; above 100 µM in the assay with A498 renal. For the same molecule, the concentration for total growth inhibition (TGI) with K-562 leukemia, in the assay with KM12 colon and in the assay on 786-0 renal was above 100 µM in each case.
On to `O=C(Nc1ccc([N+](=O)[O-])cc1[N+](=O)[O-])C(=O)C(C(=O)c1ccc(Cl)c(Cl)c1)C1OC(=O)c2ccccc21` (stereo unspecified), for which the total growth inhibition concentration (TGI) in the assay on MOLT-4 leukemia amounted to 76.8 µM; in the assay with NCI-H522 lung it was 44.7 µM; with HOP-92 NSCLC, 9.46 µM; in the assay on TK-10 renal, 93.7 µM; in the assay with OVCAR-3 ovarian, 93.1 µM; in the assay with A498 renal, 68.8 µM. In addition, the TGI with K-562 leukemia turned out to be 82 µM; with KM12 colon, 37 µM; in the assay with 786-0 renal it was 41.5 µM.
Regarding `CCCS(=O)c1nc(COC(=O)NC)c(COC(=O)NC)n1C` (stereo unspecified), the concentration for total growth inhibition (TGI) in the assay on MOLT-4 leukemia, in the assay with NCI-H522 lung, in the assay with HOP-92 NSCLC, in the assay with OVCAR-3 ovarian, in the assay on A498 renal and in the assay on K-562 leukemia was above 100 µM throughout. The TGI with KM12 colon and with 786-0 renal was above 100 µM in each case.
The term GI50 denotes the concentration giving 50% growth inhibition. For `CC(=O)[CH-]C(=O)c1ccccc1.CC(=O)[CH-]C(=O)c1ccccc1.CC[C@H](/C=C/C(C)[C@H]1CCC2[C@@H]3CC=C4C[C@@H]([O-])CC[C@]4(C)C3CC[C@@]21C)C(C)C.CC[C@H](/C=C/C(C)[C@H]1CCC2[C@@H]3CC=C4C[C@@H]([O-])CC[C@]4(C)C3CC[C@@]21C)C(C)C.Cl.[Ti+4]` (stereo partly specified), the GI50 in the assay on MOLT-4 leukemia, in the assay on NCI-H522 lung, with TK-10 renal, in the assay on OVCAR-3 ovarian, in the assay with A498 renal and in the assay with K-562 leukemia was above 25 µM each time. The GI50 with KM12 colon was above 25 µM; with 786-0 renal, 23 µM. The total growth inhibition concentration (TGI) in the assay with MOLT-4 leukemia, in the assay with NCI-H522 lung, in the assay with TK-10 renal, with OVCAR-3 ovarian, in the assay with A498 renal and with K-562 leukemia was above 25 µM throughout. Also, the TGI in the assay on KM12 colon and in the assay with 786-0 renal was above 25 µM throughout.
`CCOC(=O)C1=C(O)C(=O)c2ccoc2C1=O`: the TGI with MOLT-4 leukemia, in the assay on NCI-H522 lung, with HOP-92 NSCLC, with TK-10 renal, in the assay with OVCAR-3 ovarian and in the assay on A498 renal was above 100 µM in each case. For the same molecule, the TGI in the assay on K-562 leukemia, in the assay with KM12 colon and with 786-0 renal was above 100 µM throughout.
As to `COc1ccc(/C=C\c2cc(OC)c(OC)c(OC)c2)cc1OC(=O)CC(N)C(=O)O` (stereo unspecified), the GI50 with MOLT-4 leukemia is 0.00172 µM; with NCI-H522 lung it was 0.000424 µM; with HOP-92 NSCLC, 0.00339 µM; in the assay on TK-10 renal, 36.9 µM; in the assay with OVCAR-3 ovarian it was 0.000506 µM; with K-562 leukemia, 0.000493 µM. Moreover, the GI50 is 0.000979 µM in the assay on KM12 colon and 0.000174 µM with 786-0 renal. In addition, the TGI in the assay on NCI-H522 lung was 0.00157 µM and 0.00192 µM; in the assay on HOP-92 NSCLC it was 77.3 µM; in the assay on TK-10 renal, above 100 µM; with OVCAR-3 ovarian, 0.00528 µM and 0.00484 µM and 0.0193 µM; in the assay on A498 renal it was 0.00888 µM; in the assay with K-562 leukemia it was above 100 µM.
For the molecule `O=C1NC2C3CC(OCc4ccccc4)(OCc4ccccc4)C2OC3O1` (stereo unspecified), the TGI in the assay on MOLT-4 leukemia, in the assay with HOP-92 NSCLC, in the assay on OVCAR-3 ovarian, in the assay with A498 renal, in the assay on K-562 leukemia and in the assay with KM12 colon was above 50 µM throughout. The TGI with 786-0 renal is above 50 µM.
For `COC(=O)C12C34C=CC5(CCC6(C=CC1(CC3)O6)C52C(=O)OC)O4` (stereo unspecified), the total growth inhibition concentration (TGI) with MOLT-4 leukemia, in the assay with NCI-H522 lung, in the assay with HOP-92 NSCLC, with TK-10 renal, in the assay on A498 renal and in the assay on K-562 leukemia was above 100 µM throughout. Besides, the total growth inhibition concentration (TGI) with KM12 colon and in the assay on 786-0 renal was above 100 µM each time.
As to `C=CC(=O)Nc1ccccc1CC(c1c[nH]c2ccccc12)c1c[nH]c2ccccc12`, the TGI in the assay on MOLT-4 leukemia was determined as 46.4 µM; in the assay on NCI-H522 lung, 48.2 µM; in the assay on TK-10 renal, 59.1 µM; with OVCAR-3 ovarian, 32.6 µM; in the assay with K-562 leukemia, 49.2 µM; with KM12 colon, 38.7 µM. The concentration for total growth inhibition (TGI) in the assay with 786-0 renal worked out at 36.2 µM.
Regarding `O=NN1CCN=C1c1ccc([N+](=O)[O-])cc1`, the TGI in the assay with MOLT-4 leukemia, with NCI-H522 lung, with HOP-92 NSCLC, with TK-10 renal, in the assay with OVCAR-3 ovarian and in the assay on K-562 leukemia was above 100 µM each time. The TGI with KM12 colon and with 786-0 renal was above 100 µM throughout.
For the molecule `CCOC(=O)/C(C#N)=C\Sc1ccccc1`, the concentration for total growth inhibition (TGI) is 67.3 µM in the assay on MOLT-4 leukemia; 11.3 µM in the assay with NCI-H522 lung; above 100 µM with HOP-92 NSCLC; above 100 µM in the assay with TK-10 renal; 39.2 µM in the assay with OVCAR-3 ovarian; above 100 µM in the assay with K-562 leukemia. Besides, the concentration for total growth inhibition (TGI) is above 100 µM in the assay with KM12 colon and 29.1 µM in the assay on 786-0 renal.
As to `NCCCC(N=Cc1nc(-c2ccccc2)oc1O)C(=O)O` (stereo unspecified), the TGI in the assay on MOLT-4 leukemia, in the assay on NCI-H522 lung, in the assay with HOP-92 NSCLC, in the assay with TK-10 renal, in the assay with OVCAR-3 ovarian and in the assay with A498 renal was above 100 µM each time. For the same molecule, the TGI in the assay with K-562 leukemia and in the assay on 786-0 renal was above 100 µM each time.
On to `CCCCCCCCCCCCCCCCCCOCC(C[N+]1(C)CCC(O)CC1)OCC` (stereo unspecified), for which the TGI was found to be 10.6 µM with MOLT-4 leukemia; 31 µM in the assay with NCI-H522 lung; 4.49 µM with HOP-92 NSCLC; 20.5 µM in the assay with TK-10 renal; 15.4 µM with OVCAR-3 ovarian; 54.9 µM with A498 renal. The TGI in the assay with K-562 leukemia came to 19.1 µM; in the assay on 786-0 renal, 19.4 µM.
For `CC1(C2COC(=O)C2)SCCCS1` (stereo unspecified), the concentration for total growth inhibition (TGI) with MOLT-4 leukemia was above 100 µM; with NCI-H522 lung, 10.9 µM; with HOP-92 NSCLC, above 100 µM; in the assay with TK-10 renal it was above 100 µM; with OVCAR-3 ovarian, above 100 µM; in the assay with KM12 colon, above 100 µM. The molecule further displayed a TGI in the assay on 786-0 renal above 100 µM.
